Results reported in US5461057A, “Hydro-ethano-indeno-pyridines” (priority 1994, dated 1995).
Structures can show the parent of a compound that is named as a salt.

Assays:
pulmonary resistance = assay: Pulmonary Resistance in the Anesthetized Rat; format: in vivo; conditions: 0.5 mpk, i.v., mean of 5 animals, % decrease in pre-drug baseline resistance; for inhibition in vivo at 0.5 mg/kg: Rattus norvegicus, iv, read-out: Pulmonary Resistance in Rats, % Inhibition
Procedure: Rats (400-500 g) anesthetized with dialurethane were surgically prepared with tracheal and esophageal catheters. These catheters were connected to pressure transducers for recording of air flow, tracheal and esophageal pressures. These pressures formed the basis for measurement of pulmonary resistance. Inhibition of pulmonary resistance is a reflection of bronchodilation.
All compounds were tested i. v. in 5 separate animals. All data are expressed in % decrease in the pre-drug baseline resistance and each number given is the mean of the 5 animals tested.
The model is sensitive to bronchodilator activity.
Further information relating this test can be obtained from the following publications which are hereby incorporated by reference: Comroe et al, J. Appl. Physio. 4:439-44 (1959); Dungan et al J. Pharmacol. Exp. Therap. 164:290-301(1968); and Mead, J. et al. J. Appl. Physio. 5:779-796 (1953).

[1] = tested on: LOX human melanoma cell adhesion to human fibronectin; assay: LOX melanoma cell adhesion to fibronectin; format: cell-based; conditions: Homo sapiens, LOX; for inhibition at 10 µM: read-out: % Inhibition at 10 μM; for inhibition at 50 µM: read-out: % Inhibition at 50 μM; for IC50: Table 4, 1 hour adhesion, read-out: LOX FN IC50
Procedure: (§1) Adhesion assays were run essentially as described previously (Pai et al., J. Biomed. Res. 2: 53, 1992). 96-well plates were coated with human fibronectin (140 ng/well), human vitronectin (75 ng/well), human collagen I (100 ng/well), human collagen IV (100 ng/well), human fibrinogen (1 μg/well), murine laminin (600 ng/well), or polylysine, and incubated overnight in a humidified 37° C. incubator. Excess fibronectin or other substrate was then removed and 0.2 ml of 2 mg/ml bovine serum albumin (BSA)in Dulbecco's phosphate-buffered saline (DPBS) was added to each well, incubated for 2 hours at 37° C., and removed. LOX human melanoma cells, M27 murine lung carcinoma cells or B16F10 mouse melanoma cells were detached from tissue culture flasks with RPMI medium containing 0.2M urea and 10 mM EDTA, and 0.18 ml of cells were added to each well to a final cell concentration of 1×10^5 cells/well. For inhibition studies 20 μl of 10× compound was added to the wells prior to cell addition. Cells were allowed to adhere for 1 hour at 37° C. The wells were then gently washed twice with 0.2 ml DPBS. The fluorescent dye calcein AM (Molecular Probes, Eugene Oreg.) in DPBS (0.1 ml of 1 μM) was added to each well, and the plates were incubated for 1 hour at room temperature. Adherent cells were quantitated by reading the fluorescence on a Cytofluor 2300 fluorescent plate reader (Millipore) at 485 nm excitation and 530 nm emission.
LOX FN-IC50 value for inhibition of adhesion of LOX human melanoma cells to fibronectin coated on a plastic surface.

methamphetamine toxicity = assay: Methamphetamine toxicity test in mice; format: in vivo; conditions: Mus musculus, read-out: METHA ED50
Procedure: The methamphetamine toxicity test in mice was carried out as described in Burn et al, Arch. Int. Pharmacodyn 113:290-295, (1958); and Coscia et al, Arzneim-Forsch (Drug Research) 25:1436-1442, (1975); which are hereby incorporated by reference.
(§2) The results for this test are given below as ED50's in the units of mg/kg.
METHA refers to the methamphetamine toxicity test in mice;

[2] = Calcein cytotoxicity assay; format: cell-based; conditions: human, lox melanoma cells; 2 hours, calcein AM assay; read-out: 2 Hr Tox LD50
Procedure: LOX human melanoma cells were detached from tissue culture flasks with RPMI medium containing 0.2M urea and 10 mM EDTA, and 0.18 ml of cells were added to each well to a final cell concentration of 5×10^4 cells/well. 20 μl of 10× compound was added to the wells prior to cell addition. Cells were incubated with the compound at 37° C. for 1 hour or 5 hour as indicated. Calcein AM in DPBS (0.02 ml of 5 μM) was added to each well, and the plates were incubated for an additional 1 hour at room temperature. Viable cells were quantitated by reading the fluorescence on a Cytofluor 2300 fluorescent plate reader at 485 nm excitation and 530 nm emission.

TBZ-induced ptosis = assay: Effects on tetrabenazine (TBZ)-induced ptosis in mice; format: in vivo, mouse; conditions: for ED50: Mus musculus, po
Source text: Clinically active antidepressant drugs are known to block TBZ-induced ptosis in mice (See Psychosomatic Medicine, Nodine and Moyer, Eds. Lea and Febiger, Philadelphia, 1962, pp 683-90, which is hereby incorporated by reference). Activity in this test is used to predict anti-depressant activity in man.
The procedure for the TBZ-Induced Ptosis Test in Mice is set forth in Psychosomatic Medicine, Nodine and Moyer, Eds. Lea and Febiger, which is hereby incorporated by reference and in PCT/US91/06705, filed 20 Sep. 1991, which is mentioned above.
The results for this test are given below as ED50 's in the units of mg/kg.
TBZ refers to the test of effects on tetrabenazine induced ptosis in mice, p.o.;

[3] = tested on: histamine-induced dyspnea; assay: Bronchodilator (in vivo) Guinea Pig Dyspnea; conditions: oral, one hour before histamine challenge; for responders at 50 mg/kg / responders at 100 mg/kg: Cavia porcellus, 1 h, read-out: DYSP survivors (converted)
Procedure: Unanesthetized guinea pigs (250-350 g), fasted overnight were placed in individual closed aerosol chambers which were connected to a Monoghan Ultrasonic nebulizer. The nebulizer can deliver an ultrasonic fog of uniform particles in a range of 1-8 microns. A 0.1% solution of histamine is aerosolized into the chambers causing the guinea pigs to develop dyspnea. The test drug was given orally one hour before the histamine challenge and the onset of dyspnea was recorded. Saline control animals developed dyspnea within 90-120 seconds of aerosol exposure. […] The data was expressed as the number tested over the number survived. The model was sensitive to bronchodilator and H1 antihistamine activity. Further information relating this test can be obtained from the following two publications which are hereby incorporated by reference: Dungan, K. W. and Lish, P. M. J Allergy 32:139-151 (1961). and Lish, P. M., Robbins, S. I. and Petres E. L. J. Pharmacol. Exp. Therap. 153 L 1538 (1966 ).

metrazole = assay: Anti-metrazole test in mice; format: in vivo, mouse; conditions: Mus musculus, read-out: MTZ ED50
Procedure: The anti-metrazole test in mice was carried out as described in Everett et al, J. Pharmacol. Exp. Therap. 81:402-407 (1944); which is hereby incorporated by reference.
as §2

[4] = tested on: LOX human melanoma cell adhesion to polylysine; assay: LOX melanoma cell adhesion to polylysine; format: cell-based; conditions: read-out: Poly Lys IC50
Procedure: as §1

[5] = tested on: acetic acid-induced writhing; assay: Acetic Acid Writhing Test in Mice; format: in vivo, mouse; conditions: Mus musculus, po, read-out: WRITH ED50
Source text: The blockade of writhing induced by the intraperitoneal injection of acetic acid is an established experimental animal model for the screening of antinociceptive drugs (drugs which prevent the appreciation or transmission of pain sensations).
The procedure for the Acetic Acid Writhing Test in Mice is set forth in Hendershot et al, J. Pharmacol. Exp. Therap. 125:237, (1959); Koster et al., Fed. Proc. 18:412, (1959); and international application PCT/US91/06705, filed 20 Sep. 1991, which are hereby incorporated by reference.
The results for this test are given below in the units of mg/kg which is also abbreviated in this specification as mpk. The results for this test are given as effective doses (ED50 's).

| Structure (SMILES) | Pulmonary Resistance in Rats, % Inhibition (pulmonary resistance) [%] | inhibition at 10 µM [1] [%] | inhibition at 50 µM [1] [%] | IC50 [1] [µM] | ED50 (methamphetamine toxicity) [mg/kg] | CC50 at 2 h [2] [µM] | ED50 (TBZ-induced ptosis) [mg/kg] | observation in TBZ test (footnote c) (TBZ-induced ptosis; p.o., at the dose of 30 marked c) | DYSP survivors ([3]; 30 mg/kg) | DYSP survivors ([3]; 60 mg/kg) | DYSP survivors ([3]; 100 mg/kg) | ED50 (metrazole) [mg/kg] | IC50 [4] [µM] | ED50 [5] [mg/kg] | inhibition in vivo at 0.5 mg/kg (pulmonary resistance) [%] | responders at 50 mg/kg ([3]; 50 mg/kg) [%] | DYSP survivors ([3]; 50 mg/kg) | responders at 100 mg/kg ([3]; 100 mg/kg) [%] |
| --- | --- | --- | --- | --- | --- | --- | --- | --- | --- | --- | --- | --- | --- | --- | --- | --- | --- | --- |
| CN1C2CCC1C1C(=C(c3ccc(F)cc3)c3ccccc31)C2 (stereo not drawn) [K] | 34 | 27.6 | 100 | 15.5 | 14.9 | 116 | > 30 | animals were ataxic and depressed at this dose | 0/3 | 1/3 | 3/3 | > 30 | 71.6 | – | – | – | – | – |
| CN1C2CCC1C1C(=C(c3ccc(Cl)c(C(F)(F)F)c3)c3ccccc31)C2 (stereo not drawn) [Compound N] | 33 | 7 | 101 | 19.4 | – | 23.8 | – | – | – | – | 0/3 | – | 25.3 | – | – | – | – | – |
| COc1ccc2c(c1)C(c1ccccc1)C1=C2C2CCC(C1)N2 (stereo not drawn) [FF] | 2 | – | – | – | > 30 | – | > 30 | – | – | – | 0/3 | > 30 | – | > 30 | – | – | – | – |
| COc1ccc2c(c1)C1C3CCC(CC1C2(O)c1ccccc1)N3C (stereo not drawn) [UU] | – | 10.3 | 15.9 | – | > 30 | – | > 30 | – | – | – | – | > 30 | – | 17.3 | 2 | – | – | – |
| COc1ccc2c(c1)C(c1ccccc1)=C1CC3CCC(C12)N3C (stereo not drawn) [V] | – | – | – | – | – | – | > 30 | – | – | – | 0/3 | – | – | – | – | – | – | – |
| CN1C2CCC1C1c3ccccc3C(O)(c3ccccc3C(F)(F)F)C1C2 (stereo not drawn) [TT] | – | 16.7 | 16.1 | – | – | – | – | – | – | – | – | – | – | – | 7 | 0 | – | – |
| CN1C2CCC1C1c3ccccc3C(O)(c3cccc(Cl)c3)C1C2 (stereo not drawn) [QQ] | – | 9.2 | 21.1 | – | – | – | – | – | – | – | – | – | – | – | -30 | 33.3 | – | – |
| CN1C2CCC1C1C(=C(c3cccc(F)c3)c3ccc(F)cc31)C2 (stereo not drawn) [P] | 12 | -2.4 | 99.8 | 11.7 | – | 64.3 | – | – | – | – | – | – | 297 | – | – | – | 0/3 | – |
| COc1ccc2c(c1)C1=C(CC3CCC1N3C)C2c1ccccc1 (stereo not drawn) [Z] | – | -27.6 | 67 | 28.1 | > 30 | > 250 | > 30 | – | – | – | 0/3 | > 30 | > 250 | 17.3 | – | – | – | – |
| COc1ccc(C2=C3CC4CCC(C3c3ccccc32)N4C)cc1 (stereo not drawn) [R] | 26 | -27.3 | 97.1 | 15 | > 30 | 138 | 17.3 | – | – | – | 1/3 | > 30 | 112 | > 30 | – | – | – | – |
| CN1C2CCC1C1C(=C(c3ccc(F)cc3)c3cc(F)ccc31)C2 (stereo not drawn) [Compound H] | 20 | 37.5 | 101 | 6.5 | – | 36.9 | – | – | – | – | 1/3 | – | 23.7 | – | – | – | – | – |
| CN1C2CCC1C1C(=C(c3cccc(C(F)(F)F)c3)c3ccccc31)C2 (stereo not drawn) [L, 1 (SR):3(RS)-1,3-Ethano-2-methyl-5-(m-trifluoromethylphenyl)-1,3,4,9b-tetrahydro-H-indeno[1,2-c] pyridine. HCl 0.75H2 O.] | – | 23.7 | 100 | 20 | – | 29.7 | – | – | – | – | – | – | 80.4 | – | 14 | – | – | 100 |
| COc1ccc(C2(O)c3ccccc3C3C4CCC(CC32)N4)cc1 (stereo not drawn) [JJ] | – | 10.1 | 33.7 | – | > 30 | – | > 30 | – | – | – | – | > 30 | – | > 30 | – | 33.3 | – | 66.7 |
| CN1C2CCC1C1c3ccccc3C(O)(c3ccc4c(c3)OCO4)C1C2 (stereo not drawn) [WW] | – | 1.2 | 11.9 | – | – | – | – | – | – | – | – | – | – | – | 39 | – | – | – |
| Cc1ccc(C2(O)c3ccccc3C3C4CCC(CC32)N4C)cc1 (stereo not drawn) [OO] | – | 6.6 | 23.7 | – | – | – | – | – | – | – | – | – | – | – | -18 | – | – | 33.3 |
| CN1C2CCC1C1c3ccccc3C(O)(c3cccc(F)c3)C1C2 (stereo not drawn) [RR] | – | 13.8 | 17.6 | – | – | – | – | – | – | – | – | – | – | – | 28 | 0 | – | 66.7 |
